# Reference: patent US9371265B2, “Compositions and methods related to inhibitors of JAK kinase” (EP PHARMA, INC., priority 2012, dated 2016)
# How the values were obtained:
# [1] = Stability analysis in solvents using NMR and HPLC; assay type: physicochemical
# Procedure: FIG. 3. EP009 is structurally stable under varying solvent and temperature conditions. EP009 was dissolved in DMSO, DMSO:H20 (3:2 ratio), or methanol, and incubated at 25° C. or 37° C. for 24 hours.
# FIG. 11 illustrates the dose-dependent effect of (FIG. 11A) freshly prepared EP-009(P) and (FIG. 11B) EP-009(P) stored in aqueous conditions for 48 hr at room temperature on IL-2/JAK3-dependent Kit225 cell viability. FIG. 12 illustrates LC-MS/MS detection of EP-009 (5 ng/ml) in mouse plasma at a retention time of 1.91 min.
# panel of protein kinases = assay: Protein kinase panel profiling (whole panel); assay type: biochemical; conditions: 10 μM EP009
# Procedure: (§1) Achieving JAK3 selectivity remains a significant challenge in the development of new small molecules for the treatment of cancer and immune-derived diseases. As such, the inventors employed cell-based screening assays of small-molecule libraries based upon the chemical scaffold of the established JAK3 inhibitor NC1153 (Stepkowski et al., J Immunol. (2005), 175(7):4236-4246) EP009 (FIG. 2A) was selected as a lead compound due to improved intrinsic stability (>95% purity in various solvents at 37° C. for 24 hours; FIG. 3) and high-degree of JAK3 selectivity. To test JAK3 versus JAK2 specificity of EP009, the IL-2/JAK3-dependent Kit225, and IL-3/JAK2-dependent BaF/3 cell lines were used. Kit225 and BaF/3 cells growing in the presence of IL-2 or IL-3, respectively, were treated with ascending concentrations of EP009 for 12 hours and cellular JAK3 and JAK2 tyrosine phosphorylation levels detected by Western blot analysis (FIGS. 2B and 2C). Following densitometric analysis, EP009 was determined to dose-dependently reduce IL-2-mediated JAK3 tyrosine phosphorylation with a cellular 50% inhibitory concentration (IC50) between 10 and 20 μM (FIG. 2B). […] To globally evaluate specificity, the inhibitory activity of EP009 was measured against a panel of protein kinases distributed throughout the kinome using the scanEDGE profiling service (KINOMEscan). […]
# p70 S6 kinase = assay: Phospho-p70 S6 kinase in SU-DHL-1 cells (Luminex multiplex); assay type: cell-based, human; conditions: 24 hours
# Procedure: (§2) FIGS. 8A-8F. Effect of EP009 on ALCL cells is mediated through selective activation of ERK1/2 and JNK1/2 stress signaling pathways, and inhibition of p70 S6 kinase growth signaling pathways. SU-DHL-1 cells were treated with vehicle (PBS) or increasing amounts of EP009 (0-50 μM) for 24 hours. Cells were then lysed, clarified, and subjected to Luminex multiplex analysis to detect phosphorylated (A) ERK1/2, (B) JNK1/2, (C) p70 S6 kinase, (D) IκBα, (E) CREB, and (F) p38. Values represent mean fluorescence intensity (MFI) normalized to corresponding GAPDH MFI, while error bars represent the standard deviation (n=2). Representative data from two independent experiments are shown. Statistical significance was determined using Student's t-test. (*, p<0.05).
# (§3) The MILLIPLEX MAP 8-plex Multi-Pathway Signaling Phosphoprotein kit (Millipore) was used to detect phosphorylated ERK1/2 (Thr185/Tyr187), STAT3 (Ser727), JNK1/2 (Thr183/Tyr185), p70 S6 kinase (Thr412), IκBα (Ser32), STAT5A/B (Tyr694/699), CREB (Ser133), and p38 (Thr180/Tyr182). The MILLIPLEX MAP 5-plex STAT Phosphoprotein kit (Millipore) was used to detect phosphorylated STAT1 (Tyr701), STAT2 (Tyr690), STAT3 (Tyr705), STAT5A/B (Tyr694/699), and STAT6 (Tyr641). The MILLIPLEX MAP Human Apoptosis 3-plex kit (Millipore) was used to detect cleaved PARP, cleaved Caspase 3, and total GAPDH for protein normalization.
# IκBα = assay: Phospho-IκBα in SU-DHL-1 cells (Luminex multiplex); assay type: cell-based, human; conditions: 24 hours
# Procedure: as §2, §3
# AKT1 = AKT1 (Homo sapiens, UniProt P31749); assay: Kinase panel: AKT1; assay type: biochemical; conditions: 10 μM EP009
# Procedure: as §1
# DYRK1B = DYRK1B (Homo sapiens, UniProt Q9Y463); assay: Kinase panel: DYRK1B; assay type: biochemical; conditions: 10 μM EP009
# Procedure: as §1
# FAK = FAK (Homo sapiens, UniProt Q05397); assay: Kinase panel: FAK; assay type: biochemical; conditions: 10 μM EP009
# Procedure: as §1
# PCTK1 = PCTK1 (Homo sapiens, UniProt Q00536); assay: Kinase panel: PCTK1; assay type: biochemical; conditions: 10 μM EP009
# Procedure: as §1
# SRPK3 = SRPK3 (Homo sapiens, UniProt Q9UPE1); assay: Kinase panel: SRPK3; assay type: biochemical; conditions: 10 μM EP009
# Procedure: as §1
# VEGFR2 = VEGFR2 (Homo sapiens, UniProt P35968); assay: Kinase panel: VEGFR2; assay type: biochemical; conditions: 10 μM EP009
# Procedure: as §1
# Sequence of PCTK1 (Q00536 whole entry): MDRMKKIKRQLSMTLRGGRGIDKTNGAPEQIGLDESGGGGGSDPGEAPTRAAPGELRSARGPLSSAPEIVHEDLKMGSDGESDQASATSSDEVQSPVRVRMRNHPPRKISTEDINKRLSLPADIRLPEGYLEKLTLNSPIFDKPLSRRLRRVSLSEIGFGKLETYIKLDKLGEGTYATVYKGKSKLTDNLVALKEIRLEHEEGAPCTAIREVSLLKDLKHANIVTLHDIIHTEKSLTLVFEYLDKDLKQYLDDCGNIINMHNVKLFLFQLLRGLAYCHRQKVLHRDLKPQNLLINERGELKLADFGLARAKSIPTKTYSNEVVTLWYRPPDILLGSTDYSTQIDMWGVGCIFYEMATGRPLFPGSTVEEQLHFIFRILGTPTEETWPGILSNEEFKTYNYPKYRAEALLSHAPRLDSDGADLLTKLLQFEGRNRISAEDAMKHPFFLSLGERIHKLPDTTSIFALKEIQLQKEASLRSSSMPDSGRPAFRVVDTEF
# Sequence of DYRK1B (Q9Y463 whole entry): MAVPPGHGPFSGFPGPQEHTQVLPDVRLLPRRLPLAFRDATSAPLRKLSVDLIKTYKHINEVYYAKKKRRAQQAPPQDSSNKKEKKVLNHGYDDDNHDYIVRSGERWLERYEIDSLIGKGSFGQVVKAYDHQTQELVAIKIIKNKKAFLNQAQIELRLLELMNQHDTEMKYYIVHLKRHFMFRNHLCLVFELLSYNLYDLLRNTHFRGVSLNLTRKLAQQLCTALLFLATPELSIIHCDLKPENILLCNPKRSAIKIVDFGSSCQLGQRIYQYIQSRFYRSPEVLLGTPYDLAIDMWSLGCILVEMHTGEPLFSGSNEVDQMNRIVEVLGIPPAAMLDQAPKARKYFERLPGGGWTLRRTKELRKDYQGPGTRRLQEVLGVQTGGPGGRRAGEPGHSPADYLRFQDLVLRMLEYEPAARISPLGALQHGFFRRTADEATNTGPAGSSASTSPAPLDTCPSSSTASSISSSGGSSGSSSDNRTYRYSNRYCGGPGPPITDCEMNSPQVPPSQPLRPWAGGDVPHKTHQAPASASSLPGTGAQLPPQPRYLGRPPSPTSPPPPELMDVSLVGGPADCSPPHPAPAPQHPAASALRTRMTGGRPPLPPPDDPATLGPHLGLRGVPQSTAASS
# Sequence of SRPK3 (Q9UPE1 whole entry): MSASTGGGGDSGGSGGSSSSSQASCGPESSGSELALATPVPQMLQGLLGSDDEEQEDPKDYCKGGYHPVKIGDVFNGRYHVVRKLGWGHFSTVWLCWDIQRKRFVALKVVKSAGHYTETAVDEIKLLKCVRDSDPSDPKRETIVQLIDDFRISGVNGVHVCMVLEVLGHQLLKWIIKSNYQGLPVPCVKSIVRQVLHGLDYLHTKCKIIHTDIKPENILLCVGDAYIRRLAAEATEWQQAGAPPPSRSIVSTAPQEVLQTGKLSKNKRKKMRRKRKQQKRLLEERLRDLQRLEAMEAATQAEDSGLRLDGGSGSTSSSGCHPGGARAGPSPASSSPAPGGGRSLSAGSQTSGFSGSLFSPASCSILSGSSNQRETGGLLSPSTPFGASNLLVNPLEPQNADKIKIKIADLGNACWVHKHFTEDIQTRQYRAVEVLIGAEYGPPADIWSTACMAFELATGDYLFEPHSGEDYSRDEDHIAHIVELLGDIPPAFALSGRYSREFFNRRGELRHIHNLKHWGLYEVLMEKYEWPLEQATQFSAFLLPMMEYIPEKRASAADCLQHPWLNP
# Sequence of VEGFR2 (P35968 20-1356): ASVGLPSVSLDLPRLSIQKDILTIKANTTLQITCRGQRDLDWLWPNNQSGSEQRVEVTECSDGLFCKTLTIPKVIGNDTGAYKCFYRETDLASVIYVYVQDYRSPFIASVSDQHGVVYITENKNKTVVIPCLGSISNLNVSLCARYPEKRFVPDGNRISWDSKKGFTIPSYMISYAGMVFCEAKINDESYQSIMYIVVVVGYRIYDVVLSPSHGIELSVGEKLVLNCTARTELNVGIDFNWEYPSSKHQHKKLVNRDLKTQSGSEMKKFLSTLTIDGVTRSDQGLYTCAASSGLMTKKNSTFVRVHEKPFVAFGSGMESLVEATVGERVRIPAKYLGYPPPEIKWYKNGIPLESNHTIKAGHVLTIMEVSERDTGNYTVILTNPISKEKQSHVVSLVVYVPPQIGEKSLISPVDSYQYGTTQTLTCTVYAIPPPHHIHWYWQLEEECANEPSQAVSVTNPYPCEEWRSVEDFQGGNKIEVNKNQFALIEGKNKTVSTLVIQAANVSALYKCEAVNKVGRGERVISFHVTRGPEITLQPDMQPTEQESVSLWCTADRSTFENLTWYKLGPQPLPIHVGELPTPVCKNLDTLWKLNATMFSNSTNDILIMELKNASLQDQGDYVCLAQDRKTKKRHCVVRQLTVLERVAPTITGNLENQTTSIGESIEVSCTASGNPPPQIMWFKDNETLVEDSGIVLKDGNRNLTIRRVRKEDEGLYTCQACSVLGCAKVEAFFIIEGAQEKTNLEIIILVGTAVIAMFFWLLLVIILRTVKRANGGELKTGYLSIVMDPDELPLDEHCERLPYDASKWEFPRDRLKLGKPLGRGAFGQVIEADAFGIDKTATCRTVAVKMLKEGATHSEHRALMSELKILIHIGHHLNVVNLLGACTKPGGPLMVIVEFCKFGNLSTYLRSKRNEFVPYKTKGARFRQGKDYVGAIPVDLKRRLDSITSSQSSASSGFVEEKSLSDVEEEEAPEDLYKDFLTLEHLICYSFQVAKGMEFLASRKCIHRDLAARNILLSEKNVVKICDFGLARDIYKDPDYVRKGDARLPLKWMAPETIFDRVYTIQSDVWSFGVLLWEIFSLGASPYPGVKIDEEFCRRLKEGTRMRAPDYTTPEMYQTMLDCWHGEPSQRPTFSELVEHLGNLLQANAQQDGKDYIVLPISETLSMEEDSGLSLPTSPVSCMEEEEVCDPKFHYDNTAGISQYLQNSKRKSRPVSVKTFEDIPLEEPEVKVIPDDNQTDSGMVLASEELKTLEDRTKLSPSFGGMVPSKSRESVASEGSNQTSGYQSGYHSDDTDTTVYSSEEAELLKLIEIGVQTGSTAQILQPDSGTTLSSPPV
# Sequence of AKT1 (P31749 whole entry): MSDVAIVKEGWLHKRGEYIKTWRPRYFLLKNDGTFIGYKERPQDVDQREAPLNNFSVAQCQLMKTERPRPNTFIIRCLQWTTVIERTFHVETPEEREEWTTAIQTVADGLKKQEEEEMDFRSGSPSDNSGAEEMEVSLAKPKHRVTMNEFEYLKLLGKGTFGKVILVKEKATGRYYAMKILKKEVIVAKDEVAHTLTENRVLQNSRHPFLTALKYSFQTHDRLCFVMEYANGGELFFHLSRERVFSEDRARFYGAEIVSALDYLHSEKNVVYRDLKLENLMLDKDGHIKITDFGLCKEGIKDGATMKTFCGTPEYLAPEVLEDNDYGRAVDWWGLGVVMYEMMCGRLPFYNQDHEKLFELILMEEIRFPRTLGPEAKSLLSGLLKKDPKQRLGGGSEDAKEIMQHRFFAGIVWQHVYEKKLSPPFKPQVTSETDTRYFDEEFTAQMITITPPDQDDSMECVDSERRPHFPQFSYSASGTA
# Sequence of FAK (Q05397 whole entry): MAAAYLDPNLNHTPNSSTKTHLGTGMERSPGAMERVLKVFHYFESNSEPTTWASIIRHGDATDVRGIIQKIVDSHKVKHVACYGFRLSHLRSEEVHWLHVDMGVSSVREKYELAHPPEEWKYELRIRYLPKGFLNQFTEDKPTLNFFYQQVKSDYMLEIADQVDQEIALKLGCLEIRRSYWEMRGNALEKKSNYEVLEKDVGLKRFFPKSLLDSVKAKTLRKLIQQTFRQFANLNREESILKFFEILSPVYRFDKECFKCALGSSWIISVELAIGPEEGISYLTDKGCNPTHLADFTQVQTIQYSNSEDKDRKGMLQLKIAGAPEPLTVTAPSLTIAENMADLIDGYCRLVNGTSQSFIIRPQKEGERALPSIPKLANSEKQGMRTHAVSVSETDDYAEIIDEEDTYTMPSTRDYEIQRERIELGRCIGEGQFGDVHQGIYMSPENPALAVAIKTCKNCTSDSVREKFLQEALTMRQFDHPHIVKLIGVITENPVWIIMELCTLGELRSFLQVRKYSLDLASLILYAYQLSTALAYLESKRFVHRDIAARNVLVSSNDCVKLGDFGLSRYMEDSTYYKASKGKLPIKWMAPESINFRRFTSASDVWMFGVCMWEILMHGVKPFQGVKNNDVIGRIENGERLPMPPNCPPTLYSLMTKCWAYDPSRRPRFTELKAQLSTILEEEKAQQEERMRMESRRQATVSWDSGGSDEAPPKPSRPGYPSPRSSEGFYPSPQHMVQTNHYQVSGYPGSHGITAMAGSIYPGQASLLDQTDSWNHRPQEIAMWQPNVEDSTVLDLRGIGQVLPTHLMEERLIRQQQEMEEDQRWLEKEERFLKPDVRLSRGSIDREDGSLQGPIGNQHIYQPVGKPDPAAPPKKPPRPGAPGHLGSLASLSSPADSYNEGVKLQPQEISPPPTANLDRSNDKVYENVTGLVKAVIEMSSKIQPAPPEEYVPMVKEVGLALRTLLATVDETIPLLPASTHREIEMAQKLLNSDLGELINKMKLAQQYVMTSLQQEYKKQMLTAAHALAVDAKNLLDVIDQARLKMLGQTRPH
compound,measurement,setting,value
"C=C1CCCCCCCCCC(CO)C1=O (centres unmarked) [EP009, 2-(Hydroxymethyl)-12-methylenecyclododecanone]",stability under various solubility conditions,[1]; 24 hr at 25° C. and 37° C.,stabile
same,intrinsic stability (purity),[1]; various solvents at 37° C. for 24 hours,> 95%
same,inhibition against the kinases tested,panel of protein kinases,< 50%
same,constitutive phosphorylation of p70 S6 kinase,p70 S6 kinase,decreased in a dose-dependent manner
same,IκBα phosphorylation status,IκBα,No statistically significant change
same,Kinase Activity (% of Control),AKT1,100 % of Control
same,Kinase Activity (% of Control),DYRK1B,100 % of Control
same,Kinase Activity (% of Control),FAK,69 % of Control
same,Kinase Activity (% of Control),PCTK1,85 % of Control
same,Kinase Activity (% of Control),SRPK3,100 % of Control
same,Kinase Activity (% of Control),VEGFR2,100 % of Control
